# In patent US7705045B2, “Prodrugs built as multiple self-elimination-release spacers” (Syntarga, B.V., priority 2003, dated 2010):
# Entries after “also recorded” stand apart in the source; their conditions may differ.
# How the values were obtained:
# [1] = Stability of reference compounds on treatment with zinc and acetic acid; type: physicochemical; conditions: zinc powder, MeOH/THF/AcOH, Rt, 16 h
# Protocol: (§1) Stability of 35. Treatment of 35 with Zinc (see FIG. 28). Dibenzyl carbonate 35 (13 mg) was dissolved in 2.5 mL MeOH/THF/AcOH (1.5/0.5/0.5). Zinc powder was added and the reaction mixture was stirred at Rt for 16 h. […] The mixture was filtered over hyflo and the residue was washed with MeOH/dichloromethane.
# as §1, with “36.” for “35.”, “36” for “35”, “Paclitaxel-2′-carbonate 36 (3” for “Dibenzyl carbonate 35 (13”, “MeOH/dichloromethane. The filtrate was concentrated in vacuo.” for “MeOH/dichloromethane.”
# [2] = test system: EVSA-T; breast cancer; assay: SRB anti-proliferative test, EVSA-T; type: cell-based, human; conditions: 5 days of incubation
# Protocol: (§2) Cytoxicity of multiple release spacers 16 and 23. The anti-proliferative effect of the monomeric spacers was determined in vitro applying seven well-characterised human tumor cell lines and the microculture sulphorhodamine B (SRB) test. The anti-proliferative effects were determined and expressed as ID50 values (ng/mL), which are the (pro)drug concentrations that gave 50% inhibition of cell growth when compared to control cell growth after 5 days of incubation.
# [3] = test system: MCF-7; breast cancer; assay: SRB anti-proliferative test, MCF-7; type: cell-based, human; conditions: 5 days of incubation
# Protocol: as §2
# [4] = test system: A498; renal cancer; assay: SRB anti-proliferative test, A498; type: cell-based, human; conditions: 5 days of incubation
# Protocol: as §2
# [5] = test system: WIDR; colon cancer; assay: SRB anti-proliferative test, WIDR; type: cell-based, human; conditions: 5 days of incubation
# Protocol: as §2
# [6] = test system: IGROV; ovarian cancer; assay: SRB anti-proliferative test, IGROV; type: cell-based, human; conditions: 5 days of incubation
# Protocol: as §2
# [7] = test system: M19; melanoma; assay: SRB anti-proliferative test, M19; type: cell-based, human; conditions: 5 days of incubation
# Protocol: as §2
# [8] = test system: seven well-characterised human tumor cell lines; assay: Cytotoxicity in a panel of seven human tumor cell lines; type: cell-based
# Source text: Upon removal or transformation of the specifier V in the compounds or prodrugs disclosed in this invention, thus upon unmasking of B of the branched spacer or spacer system coupled to V, under physiological conditions, the reactive intemiediate(s) formed after self-elimination is (are) likely to be trapped by water, thereby regenerating molecules like aminodiol 23 and/or aminotriol 16. When a multiple release conjugate or prodrug constructed with one of the monomers disclosed in this invention is used for drug delivery purposes, the degradation products of the prodrug or (bio)conjugate after the multiple self-elimination cascade must be non-toxic (except from drugs to be released in tumor targeting approaches). Therefore, we have tested the aminotriol monomer 16 and aminodiol monomer 23 for their cytotoxicity in a panel of seven weul-characterized human tumor cell lines. Both compounds turned out to be non-toxic (see example 33).
# Cytoxicity of multiple release spacers 16 and 23. The anti-proliferative effect of the monomeric spacers was determined in vitro applying seven well-characterised human tumor cell lines and the microculture sulphorhodamine B (SRB) test. […]
# [9] = test system: H226; non-small cell lung cancer; assay: SRB anti-proliferative test, H226; type: cell-based, human; conditions: 5 days of incubation
# Protocol: as §2
# [10] = Release of leaving groups upon reduction of the nitro group with zinc and acetic acid (TLC, 1H-NMR); type: physicochemical
# Protocol: (§3) Proof of principle for triple elimination. Formation of benzyl alcohol upon reduction of 13 (see FIG. 19). Compound 13 was dissolved in 3 mL of MeOH/AcOH/THF (1.5/0.5/1). Zinc powder was added and the reaction mixture was stirred at Rt. […] The mixture was filtered over hyflo and the residue was washed with MeOH/dichloromethane.
# as §3, with “phenethyl” for “benzyl”, “14” for “13”, “3.75” for “3”, “(2/0.75/1).” for “(1.5/0.5/1).”
# Reduction of the nitro group in 15. Failure of elimination of benzylamine (see FIG. 20). Compound 15 (16 mg) was dissolved in 10 mL of MeOH/AcOH (8/2). Zinc powder was added and the reaction mixture was stirred at Rt. […] The mixture was filtered over hyflo and the residue was washed with MeOH/dichloromethane. The filtrate was concentrated in vacuo, the mixture was freeze-dried. Under a number of varied circumstances (different deuterated solvent combinations, different pH (acidic, neutral, and basic), different buffers), ^1H-NMR did hardly show formation of free benzylamine. After 2 days, maximally 33 percent of free benzylamine was observed (^1H-NMR).
# Proof of principle for double elimination. Formation of paclitaxel upon reduction of 22 (see FIG. 22). Nitrocinnamyl biscarbonate 22 was dissolved in 3.5 mL of MeOH/AcOH/THF (2/0.5/1). Zinc powder was added and the reaction mixture was stirred at Rt. […] The mixture was filtered over hyflo and the residue was washed with MeOH/dichloromethane. The filtrate was concentrated in vacuo, dioxane was added and the resulting solution was freeze-dried.
# Proof of principle for quadruple elimination. Formation of paclitaxel upon reduction of 26 (see FIG. 23). Compound 26 was dissolved in 3.25 mL MeOH/AcOH/TF (1.5/0.75/1). Zinc powder was added and the reaction mixture was stirred. […] After 16 h, the mixture was filtered over hyflo and the residue was washed with MeOH/dichloromethane. […]
# [11] = zinc powder, MeOH/AcOH(/THF), Rt
compound,measurement,setting,value
2′-O-cinnamyloxycarbonylpaclitaxel [Compound 36],"stability on treatment with zinc and acetic acid (TLC, 1H-NMR)",[1],did not show any degradation; also recorded: no formation of new compounds
Nc1ccc(C=C(CO)CO)cc1 [Compound 23],ID50,[2],> 0.0625 µg/mL
same,ID50,[3],> 0.0625 µg/mL
same,ID50,[4],0.056784 µg/mL
same,ID50,[5],> 0.0625 µg/mL
same,ID50,[6],> 0.0625 µg/mL
same,ID50,[7],> 0.0625 µg/mL
same,cytotoxicity,[8],non-toxic
same,ID50,[9],0.042406 µg/mL
O=C(NCc1ccccc1)OCc1ccc([N+](=O)[O-])cc1 [Compound 34],release of leaving groups by 1H-NMR,[10]; after reduction with zinc/acetic acid,complete release of free benzylamine
same,formation of free leaving group by thin layer chromatography,[10]; [11],formation of a substantial amount of benzylamine
same,time to disappearance of starting compound (thin layer chromatography),[10]; [11],100 min
"O=C(OCc1ccccc1)OCc1ccccc1 [Compound 35, Dibenzyl carbonate]","stability on treatment with zinc and acetic acid (TLC, 1H-NMR)",[1],did not show any degradation; also recorded: no formation of new compounds
